For 22 molecules, EC50 results are on record in ChEMBL document CHEMBL5370567 (Bioorg Med Chem, 2023).

The assay addresses T1, G-protein coupled bile acid receptor 1 (Homo sapiens, UniProt Q8TDU6).
T1 sequence (Q8TDU6 whole entry): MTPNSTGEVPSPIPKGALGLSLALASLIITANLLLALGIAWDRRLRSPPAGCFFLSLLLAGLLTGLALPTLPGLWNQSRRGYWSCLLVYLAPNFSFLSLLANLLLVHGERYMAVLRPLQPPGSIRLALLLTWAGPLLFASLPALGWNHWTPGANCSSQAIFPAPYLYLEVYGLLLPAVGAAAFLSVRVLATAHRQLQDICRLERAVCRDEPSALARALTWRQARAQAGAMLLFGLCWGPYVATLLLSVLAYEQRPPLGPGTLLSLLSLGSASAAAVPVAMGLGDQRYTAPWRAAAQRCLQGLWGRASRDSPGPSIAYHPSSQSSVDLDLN
Nature of the assay: Positive allosteric modulator activity at human TGR5 expressed in HEK293T cells assessed as increase in cAMP accumulation incubated for 1 hr at 37 degC and further incubated for 1 hr at room temperature by glosensor cAMP accumulation assay. Type of assay: functional, cell-based.

pEC50: −log10 of the molar value.

As usually defined, the pEC50 is the negative decadic logarithm of the EC50, by convention in mol/L.

Consider `CO[C@@H]1C[C@@H]2C[C@H](O)CC[C@]2(C)[C@H]2C[C@H](O)[C@]3(C)[C@@H]([C@H](C)CCC(=O)Oc4cccc5ccccc45)CC[C@H]3[C@H]12`, for which the pEC50 is 4.31.

Turning to `CO[C@@H]1C[C@@H]2C[C@H](O)CC[C@]2(C)[C@H]2CC(=O)[C@]3(C)[C@@H]([C@H](C)CCC(=O)Oc4ccc5ccccc5c4)CC[C@H]3[C@H]12`, the negative-log EC50 (pEC50) was under 4.00.

Regarding `CO[C@@H]1C[C@@H]2C[C@H](O)CC[C@]2(C)[C@H]2C[C@H](O)[C@]3(C)[C@@H]([C@H](C)CCC(=O)Oc4ccc5ccccc5c4)CC[C@H]3[C@H]12`, the negative logarithm of the EC50 (pEC50) was under 4.00.

Turning to `CO[C@@H]1C[C@@H]2C[C@H](O)CC[C@]2(C)[C@H]2CC(=O)[C@]3(C)[C@@H]([C@H](C)CCC(=O)OCc4ccccc4)CC[C@H]3[C@H]12`, the negative-log EC50 (pEC50) is 4.12.

On to `COC(=O)CC[C@@H](C)[C@H]1CC[C@H]2[C@@H]3[C@H](OC)C[C@@H]4C[C@H](O)CC[C@]4(C)[C@H]3C[C@H](O)[C@]12C`, for which the pEC50 was 5.10.

As for `CO[C@@H]1C[C@@H]2C[C@H](O)CC[C@]2(C)[C@H]2CC(=O)[C@]3(C)[C@@H]([C@H](C)CCC(=O)OC4CCCC4)CC[C@H]3[C@H]12`, the negative-log EC50 (pEC50) was 4.64.

Turning to `CO[C@@H]1C[C@@H]2C[C@H](O)CC[C@]2(C)[C@H]2CC(=O)[C@]3(C)[C@@H]([C@H](C)CCC(=O)OCC4CC4)CC[C@H]3[C@H]12`, the pEC50 is 5.02.

On to `CO[C@@H]1C[C@@H]2C[C@H](O)CC[C@]2(C)[C@H]2CC(=O)[C@]3(C)[C@@H]([C@H](C)CCC(=O)Oc4ccccc4)CC[C@H]3[C@H]12`, for which the pEC50 was 5.26.

As for `CO[C@@H]1C[C@@H]2C[C@H](O)CC[C@]2(C)[C@H]2C[C@H](O)[C@]3(C)[C@@H]([C@H](C)CCC(=O)Oc4ccccc4)CC[C@H]3[C@H]12`, the pEC50 was 4.73.

As for `CO[C@@H]1C[C@@H]2C[C@H](O)CC[C@]2(C)[C@H]2CC(=O)[C@]3(C)[C@@H]([C@H](C)CCC(=O)OCC4CCCC4)CC[C@H]3[C@H]12`, the negative-log EC50 (pEC50) was 4.21.

For the molecule `CO[C@@H]1C[C@@H]2C[C@H](O)CC[C@]2(C)[C@H]2C[C@H](O)[C@]3(C)[C@@H]([C@H](C)CCC(=O)OC4CC4)CC[C@H]3[C@H]12`, the pEC50 was 5.05.

Take `CCOC(=O)CC[C@@H](C)[C@H]1CC[C@H]2[C@@H]3[C@H](OC)C[C@@H]4C[C@H](O)CC[C@]4(C)[C@H]3C[C@H](O)[C@]12C`: the pEC50 was 4.70.

As for `CCOC(=O)CC[C@@H](C)[C@H]1CC[C@H]2[C@@H]3[C@H](OC)C[C@@H]4C[C@H](O)CC[C@]4(C)[C@H]3CC(=O)[C@]12C`, the pEC50 is 4.50.

`CO[C@@H]1C[C@@H]2C[C@H](O)CC[C@]2(C)[C@H]2CC(=O)[C@]3(C)[C@@H]([C@H](C)CCC(=O)OC(C)C)CC[C@H]3[C@H]12`: the negative logarithm of the EC50 (pEC50) is 4.92.

Take `CO[C@@H]1C[C@@H]2C[C@H](O)CC[C@]2(C)[C@H]2C[C@H](O)[C@]3(C)[C@@H]([C@H](C)CCC(=O)OCC4CC4)CC[C@H]3[C@H]12`: the pEC50 was 4.85.

Turning to `CO[C@@H]1C[C@@H]2C[C@H](O)CC[C@]2(C)[C@H]2CC(=O)[C@]3(C)[C@@H]([C@H](C)CCC(=O)Oc4cccc5ccccc45)CC[C@H]3[C@H]12`, the negative logarithm of the EC50 (pEC50) is 4.42.

On to `CO[C@@H]1C[C@@H]2C[C@H](O)CC[C@]2(C)[C@H]2C[C@H](O)[C@]3(C)[C@@H]([C@H](C)CCC(=O)OCC4CCCC4)CC[C@H]3[C@H]12`, for which the pEC50 was 4.59.

`CO[C@@H]1C[C@@H]2C[C@H](O)CC[C@]2(C)[C@H]2C[C@H](O)[C@]3(C)[C@@H]([C@H](C)CCC(=O)OC(C)C)CC[C@H]3[C@H]12`: the negative logarithm of the EC50 (pEC50) is 5.01.

As to `COC(=O)CC[C@@H](C)[C@H]1CC[C@H]2[C@@H]3[C@H](OC)C[C@@H]4C[C@H](O)CC[C@]4(C)[C@H]3CC(=O)[C@]12C`, the pEC50 is 5.28.

In the case of `CO[C@@H]1C[C@@H]2C[C@H](O)CC[C@]2(C)[C@H]2CC(=O)[C@]3(C)[C@@H]([C@H](C)CCC(=O)OC4CC4)CC[C@H]3[C@H]12`, the pEC50 was 5.20.

With `CO[C@@H]1C[C@@H]2C[C@H](O)CC[C@]2(C)[C@H]2C[C@H](O)[C@]3(C)[C@@H]([C@H](C)CCC(=O)OC4CCCC4)CC[C@H]3[C@H]12`, the negative logarithm of the EC50 (pEC50) is 4.66.

Regarding `CO[C@@H]1C[C@@H]2C[C@H](O)CC[C@]2(C)[C@H]2C[C@H](O)[C@]3(C)[C@@H]([C@H](C)CCC(=O)OCc4ccccc4)CC[C@H]3[C@H]12`, the pEC50 was 4.03.
